# Molecular target: T1, Albumin (Homo sapiens, UniProt P02768)
# Experiment: Binding affinity to human serum albumin assessed as dissociation constant using N-alpha-(6-FAM)-N-epsilon-(4-Iodophenylbutanoyl)-D-lysine as substrate and measured after 5 mins by fluorescence based competition assay
# Details: not given
# T1 sequence (P02768 whole entry): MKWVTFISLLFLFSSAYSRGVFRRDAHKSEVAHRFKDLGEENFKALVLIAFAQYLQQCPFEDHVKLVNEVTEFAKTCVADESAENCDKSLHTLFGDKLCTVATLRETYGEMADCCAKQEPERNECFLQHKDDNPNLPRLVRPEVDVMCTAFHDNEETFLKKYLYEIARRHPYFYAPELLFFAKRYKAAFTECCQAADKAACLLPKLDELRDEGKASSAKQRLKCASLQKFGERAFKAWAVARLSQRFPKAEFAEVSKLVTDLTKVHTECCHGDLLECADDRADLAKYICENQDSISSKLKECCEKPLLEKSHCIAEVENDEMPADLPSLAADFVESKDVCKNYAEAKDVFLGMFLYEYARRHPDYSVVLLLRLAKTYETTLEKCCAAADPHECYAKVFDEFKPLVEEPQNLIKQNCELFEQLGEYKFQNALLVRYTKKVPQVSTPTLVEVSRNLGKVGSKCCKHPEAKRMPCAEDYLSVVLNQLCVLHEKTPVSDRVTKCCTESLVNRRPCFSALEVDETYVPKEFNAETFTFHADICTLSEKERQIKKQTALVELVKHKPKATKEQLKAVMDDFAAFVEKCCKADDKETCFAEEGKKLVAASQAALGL
row,Molecule,Kd
1,O=C(CCCc1ccc(I)cc1)NCCCC[C@@H](NC(=O)c1ccc(C(=O)O)c(-c2c3ccc(=O)cc-3oc3cc(O)ccc23)c1)C(=O)O,0.23 µM

# Molecular target: T1, Albumin
# Experiment: Binding affinity to human serum albumin assessed as dissociation constant by isothermal titration calorimetry
# Details: not given
row,Molecule,Kd
1,CC(=O)N[C@@H](CCCCNC(=O)CCCc1ccc(I)cc1)C(=O)O,9 µM
2,CC(=O)N[C@H](CCCCNC(=O)CCCc1ccc(I)cc1)C(=O)O,3.2 µM

# Molecular target: T1, Albumin
# Experiment: Binding affinity to human serum albumin assessed as dissociation constant and measured after 5 mins by MST assay
# Details: not given
row,Molecule,Kd
1,[N-]=[N+]=Nc1ccc(C(=O)N[C@H](CCCCNC(=O)CCCc2ccc(I)cc2)C(=O)O)cc1,2.6 µM
2,CC(=O)N[C@H](CCCCNC(=O)CCCc1ccc(I)cc1)C(=O)O,8 µM

# Molecular target: T1, Albumin
# Experiment: Binding affinity to human serum albumin assessed as dissociation constant and measured after 5 mins by fluorescence based competition assay
# Details: not given
row,Molecule,Kd
1,[N-]=[N+]=NCCCCC(=O)N[C@@H](CCCCNC(=O)CCCc1ccc(I)cc1)C(=O)O,6 µM
2,Cc1ccc(CCCC(=O)NCCCC[C@H](NC(=O)c2ccc(N=[N+]=[N-])cc2)C(=O)O)cc1,3 µM
3,[N-]=[N+]=Nc1ccc(C(=O)N[C@@H](CCCCNC(=O)CCCc2ccc(I)cc2)C(=O)O)cc1,0.36 µM
4,COC(=O)[C@H](CCCCNC(=O)CCCc1ccc(I)cc1)NC(C)=O,110 µM
5,[N-]=[N+]=Nc1ccc(C(=O)N[C@@H](CCCCNC(=O)CCCc2ccc(Cl)cc2)C(=O)O)cc1,3.5 µM
6,NC(=O)[C@H](CC(=O)O)NC(=O)CCCc1ccc(I)cc1,100 µM
7,CC(=O)N[C@@H](CCCCNC(=O)CCCc1ccc(I)cc1)C(N)=O,70 µM
8,O=C(CCCc1ccc(I)cc1)NCCCC[C@H](C(=O)O)n1cc(-c2ccccc2)nn1,4 µM
9,[N-]=[N+]=Nc1ccc(C(=O)N[C@H](CCCCNC(=O)CCCc2ccc(I)cc2)C(=O)O)cc1,1.2 µM
10,O=C(O)CN1CCN(CC(=O)O)CCN(C(CCC(=O)N[C@@H](CCCCNC(=O)CCCc2ccc(I)cc2)C(=O)O)C(=O)O)CC1 (stereo not given in full),8 µM
11,[N-]=[N+]=Nc1ccc(C(=O)N[C@@H](CCCCNC(=O)CCCc2ccc(C(F)(F)F)cc2)C(=O)O)cc1,4.1 µM
12,[N-]=[N+]=Nc1ccc(C(=O)N[C@@H](CCCCNC(=O)CCCc2ccc(Br)cc2)C(=O)O)cc1,2 µM
13,[N-]=[N+]=NCCCCC(=O)N[C@H](CCCCNC(=O)CCCc1ccc(I)cc1)C(=O)O,8 µM
14,CC(=O)N[C@@H](CCCCNC(=O)CCCc1ccc(I)cc1)C(=O)O,3.2 µM
15,CC(=O)N[C@H](CCCCNC(=O)CCCc1ccc(I)cc1)C(=O)O,7 µM
16,[N-]=[N+]=Nc1ccc(C(=O)N[C@@H](CCCCNC(=O)CCCc2ccc(F)cc2)C(=O)O)cc1,26 µM
17,C#CCCC(=O)N[C@H](CCCCNC(=O)CCCc1ccc(I)cc1)C(=O)O,7.3 µM
18,C#Cc1ccc(C(=O)N[C@@H](CCCCNC(=O)CCCc2ccc(I)cc2)C(=O)O)cc1,0.34 µM
19,NC(=O)[C@H](CCC(=O)O)NC(=O)CCCc1ccc(I)cc1,80 µM
20,CC(C)Cc1ccc(C(C)C(=O)NCCCC[C@H](NC(=O)c2ccc(N=[N+]=[N-])cc2)C(=O)O)cc1 (stereo not given in full),4 µM
21,[N-]=[N+]=Nc1ccc(C(=O)N[C@@H](CCCCNC(=O)CCCc2ccccc2)C(=O)O)cc1,36 µM

# Tested on: not listed separately
# Experiment: Lipophilicity, logD of compound at pH 7.4 under shaking condition by HPLC analysis
# Type: physicochemical
# Details: buffer
row,Molecule,logD
1,[N-]=[N+]=Nc1ccc(C(=O)N[C@@H](CCCCNC(=O)CCCc2ccc(I)cc2)C(=O)O)cc1,1.75
2,[N-]=[N+]=Nc1ccc(C(=O)N[C@@H](CCCCNC(=O)CCCc2ccc(I)cc2)C(N)=O)cc1,3.13

# Molecular target: Somatostatin receptor type 2 (Mus musculus) (UniProt P30875)
# Sequence (P30875 whole entry): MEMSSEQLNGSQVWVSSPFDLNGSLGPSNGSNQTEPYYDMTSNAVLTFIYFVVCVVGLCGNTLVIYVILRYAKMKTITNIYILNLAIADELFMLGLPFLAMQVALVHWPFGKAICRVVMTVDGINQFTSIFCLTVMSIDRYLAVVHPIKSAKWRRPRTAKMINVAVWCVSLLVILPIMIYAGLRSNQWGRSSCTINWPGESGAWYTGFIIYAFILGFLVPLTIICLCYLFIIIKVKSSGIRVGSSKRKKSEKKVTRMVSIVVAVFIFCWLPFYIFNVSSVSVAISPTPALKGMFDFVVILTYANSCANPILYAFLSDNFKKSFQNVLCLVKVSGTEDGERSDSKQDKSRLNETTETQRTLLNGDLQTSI
# Experiment: Binding affinity to mouse SST2 expressed in mouse pheochromocytoma cells assessed as maximum binding capacity for 1 hr by Nanodrop spectrophotometric analysis
# Type: cell-based
# Details: Pheochromocytoma cell
row,Molecule,Bmax
1,[64Cu]Cu-DOTA-TATE,779 fmol/mg
2,[64Cu]Cu-NODAGA-TATE,383 fmol/mg

# Source: ChEMBL document CHEMBL5042503, “"Clickable" Albumin Binders for Modulating the Tumor Uptake of Targeted Radiopharmaceuticals” (J Med Chem, 2022)
